This is an account of results in patent US12617831B2 (UNIVERSITE D'ANGERS, priority 2019, dated 2026).

Assay [1] concerns ovariectomy-induced bone loss in mice. The assay can be described thus: Trabecular bone microarchitecture, fifth lumbar vertebra, ovariectomized mice. The following applies: OVX mice, L5, 25 nmoles/kg/day, vs vehicle. The class given is in vivo. As for the experimental part:
At 16 weeks of age, ALZET osmotic pumps (model number 2006, Durect Corp., Cupertino, CA) filled with the below saline or peptide were implanted subcutaneously between the two scapula under general anesthesia in 32 mice. Successful filling of pumps was verified by weighting the pump before and after filling. At 20 weeks of age, ALZET osmotic pumps were replaced by similar pumps to ensure delivery for four new weeks. […] This dose and regimen of zoledronic acid was equivalent to the 5 mg infusion approved for the treatment of post-menopausal osteoporosis in humans. Analyses of vertebral bodies of the fifth lumbar vertebra (L5) were performed with a Nanotom nanotomograph (Phoenix, GE, USA) operated at 85 kV, 220 μA, 1000 ms integration time. The isotropic pixel size was fixed at 4 μm, the rotation step at 0.25° and exposure was done with a 0.1 mm copper filter. Each 3D reconstruction image dataset was binarized using global thresholding. Trabecular volume of interest was computerized on coronal sections of the L5 vertebral body. Trabecular VOI was spread over the entire vertebral body excluding the first and last 80 μm from the anterior and posterior cortical wall. All microCT/NanoCT parameters were determined according to guidelines and nomenclature proposed by the American Society for Bone and Mineral Research (Bouxsein et al., 2010).

Another assay deals with T1, human GIPr (Homo sapiens, UniProt P48546).
T1 construct: host or cells: HEK-293
T1 sequence (P48546 22-466): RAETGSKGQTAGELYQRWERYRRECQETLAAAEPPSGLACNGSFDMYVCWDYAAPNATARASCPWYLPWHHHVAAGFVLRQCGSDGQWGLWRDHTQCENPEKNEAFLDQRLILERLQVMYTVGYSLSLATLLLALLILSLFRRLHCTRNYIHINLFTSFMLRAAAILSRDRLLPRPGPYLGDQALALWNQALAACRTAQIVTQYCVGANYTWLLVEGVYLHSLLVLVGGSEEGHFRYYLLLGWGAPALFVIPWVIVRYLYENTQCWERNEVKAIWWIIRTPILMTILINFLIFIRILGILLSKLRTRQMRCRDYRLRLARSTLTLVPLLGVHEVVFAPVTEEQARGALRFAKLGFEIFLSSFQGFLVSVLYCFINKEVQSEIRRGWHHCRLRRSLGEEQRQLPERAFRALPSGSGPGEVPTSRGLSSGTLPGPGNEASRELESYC
Kind of assay: Cyclic AMP assay (FRET, H74 probe), HEK-293 transfected with human GIPr. It counts as cell-based. Conditions: HEK 293 transfected only with human GIPr, 10^-9 M, 30 min (FIG. 16). As to the method:
(§1) Human HEK-293 cells were plated at a density of 2×10^5 cells/cm^2 in 4 well microslides (ibidi GmbH, Martinsried, Germany). […] Jalink (Netherland Cancer Institute, Amsterdam, Netherland). […] The image acquisition was performed with a 63 X, 1.4 N.A. oil immersion objective and a Hybrid® detector (Leica) and images were collected after 30 minutes. Donor excitation was made with a 458 nm Ar laser, donor emission was collected between 460-505 nm and acceptor emission between 520-600 nm by setting the SP8 spectrometer accordingly. FRET was expressed as the ratio between donor and acceptor signals.

Assay [2] deals with human GIPr and the human GLP-2r. Kind of assay: Cyclic AMP assay (FRET, H74 probe), HEK-293 co-transfected with human GIPr and human GLP-2r. It counts as cell-based. Conditions: 10^-9 M. As to the method: as §1

Turning to `CC[C@H](C)[C@H](NC(=O)[C@H](CO)NC(=O)[C@H](Cc1ccccc1)NC(=O)[C@H](CC(=O)O)NC(=O)[C@H](CO)NC(=O)CNC(=O)[C@H](Cc1ccccc1)NC(=O)[C@H](CO)NC(=O)CNC(=O)[C@H](CCC(=O)O)NC(=O)CNC(=O)[C@@H](N)Cc1c[nH]cn1)C(=O)N[C@@H](C)C(=O)N[C@@H](CC(C)C)C(=O)N[C@@H](CC(=O)O)C(=O)N[C@@H](CCCCN)C(=O)N[C@@H](CC(C)C)C(=O)N[C@@H](C)C(=O)N[C@@H](C)C(=O)N[C@@H](CCCNC(=N)N)C(=O)N[C@@H](CC(=O)O)C(=O)N[C@@H](Cc1ccccc1)C(=O)N[C@H](C(=O)N[C@@H](CC(N)=O)C(=O)N[C@@H](Cc1c[nH]c2ccccc12)C(=O)N[C@@H](CC(C)C)C(=O)N[C@@H](CC(C)C)C(=O)N[C@@H](CCC(N)=O)C(=O)N[C@H](C(=O)N[C@@H](CCCCN)C(N)=O)[C@@H](C)O)C(C)C` [GL-0007], the “reduction in trabecular spacing” value in assay [1] was determined as 17%.

As to `CC[C@H](C)[C@H](NC(=O)[C@H](CO)NC(=O)[C@H](CCSC)NC(=O)[C@H](CC(=O)O)NC(=O)[C@H](CO)NC(=O)CNC(=O)[C@H](Cc1ccccc1)NC(=O)[C@H](CO)NC(=O)CNC(=O)[C@H](CCC(=O)O)NC(=O)CNC(=O)[C@@H](N)Cc1c[nH]cn1)C(=O)N[C@@H](C)C(=O)N[C@@H](CC(C)C)C(=O)N[C@@H](CC(=O)O)C(=O)N[C@@H](CCCCN)C(=O)N[C@@H](CC(C)C)C(=O)N[C@@H](C)C(=O)N[C@@H](C)C(=O)N[C@@H](CCCNC(=N)N)C(=O)N[C@@H](CC(=O)O)C(=O)N[C@@H](Cc1ccccc1)C(=O)N[C@H](C(=O)N[C@@H](CC(N)=O)C(=O)N[C@@H](Cc1c[nH]c2ccccc12)C(=O)N[C@@H](CC(C)C)C(=O)N[C@@H](CC(C)C)C(=O)N[C@@H](CCC(N)=O)C(=O)N[C@H](C(=O)N[C@@H](CCCCN)C(=O)N[C@H](C(=O)N[C@H](C(=O)N[C@@H](CC(=O)O)C(=O)O)[C@@H](C)O)[C@@H](C)CC)[C@@H](C)O)C(C)C` [GL-0001], the “intracellular levels of cAMP” value at human GIPr is recorded as “increased intracellular levels of cAMP”; in assay [2] (HEK 293 co-transfected with human GIPr and human GLP-2r, 30 min (FIG. 18)), “increased intracellular levels of cAMP”. Besides, the “magnitude of cAMP rise versus native peptides” value in assay [2] (co-transfected HEK 293 cells) is on record as “greater with GL-0001 than with each native peptide”.
